Experiment [1] has as its system umami taste. The experiment in a line: Evaluation of amides 1 and 4 in a pork flavor, trained panel. The class given is in vivo, human. The following applies: amide at 20 ppm in pork flavor; scale 0 to 10; 5 panelists; pork flavor alone = 4.5. How it is done:
3) Evaluation of Amides 1 and 4 in a Pork Flavor
Amides 1 and 4 were evaluated at 20 ppm by 5 trained panelists in a pork flavor on a blind test basis as described above.

Experiment [2] deals with umami taste. As to the kind of experiment: Umami intensity and liking of amide 1, an ingredient and their blend in hot mineral water, trained panel. Type of experiment: in vivo, human. On the procedure:
Pat. No. 7,807,206 (containing Rebaudioside A and stevioside), sea salt, succinic acid, yeast extract, hydrolyzed corn protein, or hydrolyzed wheat gluten) and a blend of the amide with the ingredient were weighed and hot mineral water was added to each sample according to the dosages indicated in each experiments. The samples were stirred in order to ensure the solubilisation of the ingredients. Each sample was coded, and tasted in a random order by 5 trained panelists. […] The panelists were also asked to describe the samples.

Where [3] appears, read: Table 10, scale 1-10, MSG 0.04%, Amide 1 20 ppm, glucosylated stevosides 8 ppm, blend 20 ppm + 8 ppm.
The mark [4] stands for this setting: Table 11, scale 1-10, MSG 0.04%, Amide 1 20 ppm, Sea Salt 0.03%, blend 20 ppm + 0.03%.
The mark [5] stands for this setting: Table 12, scale 1-10, MSG 0.04%, Amide 1 20 ppm, Succinic acid 36 ppm, blend 20 ppm + 36 ppm.
Setting [6] is: Table 13, scale 1-10, MSG 0.04%, Amide 1 20 ppm, Yeast extract 60 ppm, blend 20 ppm + 60 ppm.
The mark [7] stands for this setting: Table 14, scale 1-10, MSG 0.04%, Amide 1 20 ppm, Yeast extract 175 ppm, blend 20 ppm + 175 ppm.
Setting [8] is: Table 15, scale 1-10, MSG 0.04%, Amide 1 10 ppm, Yeast extract 60 ppm, blend 10 ppm + 60 ppm.
Setting [9] is: Table 16, scale 1-10, MSG 0.04%, Amide 1 20 ppm, Hydrolized corn protein 40 ppm, blend 20 ppm + 40 ppm.
Where [10] appears, read: Table 17, scale 1-10, MSG 0.04%, Amide 1 20 ppm, Hydrolized corn protein 320 ppm, blend 20 ppm + 320 ppm.
Setting [11] is: Table 18, scale 1-10, MSG 0.04%, Amide 1 20 ppm, Hydrolized wheat gluten 100 ppm, blend 20 ppm + 100 ppm.
[12] abbreviates: Table 19, scale 1-10, MSG 0.04%, Amide 1 10 ppm, Nature Pep 971481 100 ppm, blend 10 ppm + 100 ppm.

Results on 4 molecules are retold here after patent US11224243B2, “Taste-modifying combinations” (FIRMENICH SA, priority 2012, dated 2022).

The structures appear in SMILES notation.

Turning to `COc1ccc(CCNC(=O)/C=C/c2ccc(OC)c(OC)c2)cc1` [Amide 1, (E)-3-(3,4-dimethoxyphenyl)-N-(4-methoxyphenethyl)acrylamide], in experiment [1], the Umami intensity came out at 6. Further, the Umami in experiment [2] (setting [3]) is given as 4.8; in experiment [2] (setting [4]), 3.3; in experiment [2] (setting [5]), 3.7; in experiment [2] (setting [6]) it was 4.5; in experiment [2] (setting [7]) it was 4.5; in experiment [2] (setting [8]), 2.5. In addition, the Umami in experiment [2] (setting [9]) is given as 4.2; in experiment [2] (setting [10]), 1.7; in experiment [2] (setting [11]) it was 4.0; in experiment [2] (setting [12]), 3.7.

Molecule `COc1cccc(CCNC(=O)/C=C/c2ccc(OC)c(OC)c2)c1` [Amide 4, (E)-3-(3,4-dimethoxyphenyl)-N-(3-methoxyphenethyl)acrylamide] gave a Umami intensity in experiment [1] of 7.

Take `N[C@@H](CCC(=O)O)C(=O)[O-].[Na+]` [MSG, monosodium glutamate, reference compound]: the Umami in experiment [2] (setting [3]) stood at 5.8; in experiment [2] (setting [4]), 5.8; in experiment [2] (setting [5]) it was 4.2; in experiment [2] (setting [6]) it was 5.5; in experiment [2] (setting [7]), 5.5; in experiment [2] (setting [8]), 4.0. Besides, the Umami amounted to 5.4 in experiment [2] (setting [9]), 3.0 in experiment [2] (setting [10]), 5.5 in experiment [2] (setting [11]) and 7.2 in experiment [2] (setting [12]).

As for `O=C(O)CCC(=O)O` [Succinic acid, succinic acid], the Umami in experiment [2] (setting [5]) is given as 1.0.
